How the values were obtained:
[1] = Rapid brain distribution assay (LC-MS/MS, brain tissue/plasma ratio); assay type: in vivo; details: mouse, ip, CD1 mice, intraperitoneal, grouped compounds, brain tissue and plasma taken one hour after administration, read-out: B/P
Method: The contents in plasma and tissue samples were measured by LC-MS/MS to obtain the ratio of the concentration in the brain tissue sample to that in the plasma sample, and compounds with blood-brain penetration could be quickly screened.
• 3.1. A group of compounds (usually 3-4 compounds, the molecular weight difference between each other was greater than 5), weighing 1-2 mg of each compound, were added into the same 4 mL weighing bottle. • 3.2. A mixed solvent of 10% DMSO+20% polyethylene glycol-15-hydroxystearate+70% H2O was used to prepare each group to a volume of 1.5 mL-2 mL. • 3.3. The mixture was ultrasonically vortexed until a homogeneous solution was obtained for intraperitioneal administration.
• 4.1. Three CD1 mice were prepared for each group and weighed. • 4.2. The administration volume was 10 mL/kg, and the mice were administered intraperitoneally. • 4.3. Timing was started after administration, and plasma samples and brain tissue samples were taken one hour later. • 4.4. The brain tissue sample was weighed, and then 4 fold volume of physiological saline was added. The resulting mixture was homogenized, and frozen at −20° C. until analysis.
• 5.1. The exact molecular weight of a compound was found from the compound information table. • 5.2. The corresponding parent ions and fragment ions were found, and the mass spectrometry condition and the liquid phase (chromatography) method were optimized to find the appropriate condition and method.
• 6.1. Plasma sample (5-fold dilution): 10 μL of the plasma sample was taken, and 40 μL of the blank plasma sample and 50 μL of the corresponding blank tissue sample were added. • 6.2 Tissue sample processing: 50 μL of the tissue sample (brain, kidney, liver and the like) was taken, and 50 μL of the blank plasma sample was added. • 6.3. The above tissue sample and the diluted plasma sample were taken, and 500 μL of the internal standard solution was added to precipitate the protein. The resulting mixture was vortexed for 2 minutes, stored by freezing at −20° C. for 1 hour and centrifuged at 3800 rpm for 15 minutes at 4° C. The supernatant was taken, 5-fold diluted with 50% MeOH, and then vortexed for 2 minutes, ready for measurement.
The sample was detected by using an appropriate LC-MS/MS method.
Distribution ratio of tissue/plasma=(peak area of compound in tissue/peak area of internal standard)/(peak area of compound in plasma/peak area of internal standard)

[2] = tested on: HT-29 human colon cancer cells; assay: In vitro biological activity assay: inhibition of TNFα/SmacM/Z_VAD FMK-induced programmed necrosis, CellTiter-Glo viability; assay type: cell-based; details: HT-29 cells, necrosis induced with TNF-α 100 ng/mL, SmacM 100 nM, Z_VAD-FMK 10 μM, overnight, cell viability by chemiluminescence
Method: In order to verify the inhibitory effect of the compounds of the present disclosure on programmed necrosis at the cellular level, a type of cells closely related to the RIP1 pathway, namely HT-29 human colon cancer cells, were selected. The used activation mode is a combination of tumor necrosis factor (TNFα), cysteine aspartate activator mimic (SmacM) and pan-caspase inhibitor Z_VAD FMK, and the cell viability was calculated by detecting chemiluminescence values, thus obtaining the biological activity of the compound inhibiting the programmed necrosis of cells.
Cell line: HT-29 (ATCC® HTB-38™)
• 2.1. The Growth Status of HT-29 Cells was Regularly Checked to Ensure their Normal Growth. • 2.2. McCOY's 5A culture medium containing 10% FBS was preheated in a 37° C. water bath for 30 minutes. When the culture medium was ready for use, the cell passage and inoculation was performed in a Class II safety cabinet with aseptic technique. • 2.3. In a T75 culture flask, when the growth density of cells reached the abundance of approximately 80%, the culture medium was aspirated and cells were washed twice with pre-warmed PBS. • 2.4. 2-3 mL of trypsin (Gibco, catalog number 25200-056) was added and the T75 culture flask was transferred to a 37° C. incubator. • 2.5. After 3-5 minutes, the side of the culture flask was tapped and examined under a microscope for detachment of the cells to the flask. If necessary, the cells were placed back into the incubator to wait for another 5-10 minutes until 85% of the cells were detached from each other. • 2.6. 6-9 mL of complete cell culture medium was quickly added to terminate the trypsin reaction, and then the cells were transferred to a sterile 15 mL centrifuge tube. The cells were pelleted by centrifugation at 300 g for 5-7 minutes in a centrifuge, and then the supernatant was decanted. • 2.7. The cells were resuspended in 10 mL of fresh cell culture medium and the cells were counted by using a hemocytometer. • 2.8. 3,000 cells contained in 100 μL were inoculated into each well of a sterile 96-well cell culture plate (Corning 3903) and cultured overnight at 37° C. under 5% CO2.
• 3.1. All batches of compounds were dissolved in dimethyl sulfoxide (DMSO) to prepare a 20 mM stock. • 3.2. 3 μL of 20 mM stock of each compound was added to 27 μL of DMSO and mixed thoroughly, and then diluted at a dilution ratio of […] (20 μL compound+40 μL DMSO) until the 10-12 points ended. After the compounds were diluted, they were set aside for use. • 3.3. The cell culture plate was taken out from the incubator, washed once with PBS, and replaced with a fresh culture medium free of serum. A mixture of TNF-α (100 ng/mL), SMAC mimic (SmacM, 100 nM) and Z_VAD-FMK (10 μM) was added to induce the programmed necrosis in HT-29 cells. • 3.4. The compound dilution plate was prepared, 0.5 μL of the diluted compound was added to the corresponding 96-well plate, and mixed gently. Two duplicate wells were prepared for each compound. • 3.5. The treated 96-well plate to which the compounds had been added was placed back into the 37° C. incubator containing 5% CO2 and incubated overnight.
The luminescence cell viability detection kit was used to calculate the activity of the compound by measuring the ATP content in viable cells. • 4.1. The CellTiter-Glo® buffer and dry powdered substrate were equilibrated to room temperature before use. • 4.2. The CellTiter-Glo® substrate was resuspended with Cell Titer-Glo® buffer, then homogeneously mixed by gently vortexing. • 4.3. The cell culture plate was taken out and equilibrated at room temperature for 10 minutes (usually not suitable if more than 30 minutes). • 4.4. 20 μL of enzyme/substrate mixture was added into the 96-well assay plate with a multi-channel pipettor. • 4.5. The 96-well assay plate was placed on a shaker and the content was mixed for 2-3 minutes to promote the cell lysis. • 4.6. […]

| Structure (SMILES) | Kp at 1 h [1] | EC50 [2] |
| --- | --- | --- |
| C(#Cc1cnc2cccnn12)c1cc(-n2cc3c(n2)C(c2ccccc2)CC3)ccn1 (stereo not drawn) [Compound 37] | 1.06 | ≤ 100 nM |
| C(#Cc1cncc(-n2cc3c(n2)C(c2ccccc2)CC3)c1)c1ccccc1 (stereo not drawn) [Compound 30, 6-phenyl-2-(5-(phenylethynyl)pyridin-3-yl)-2,4,5,6-tetrahydrocyclopenta[c]pyrazole] | 0.429 | > 1000 nM |
| Nc1ncc(C#Cc2cncc(-n3nc4c(n3)C(C3CCCCC3)CC4)c2)cn1 (stereo not drawn) [Compound 2, 5-((5-(4-cyclohexyl-5,6-dihydrocyclopenta[d][1,2,3]triazol-2 (4H)-yl)pyridin-3-yl)ethynyl)pyrimidin-2-amine] | 0.62 | ≤ 100 nM |
| Nc1ncc(C#Cc2cccc(-n3cc4c(n3)C(c3ccccc3)CC4)c2)cn1 (stereo not drawn) [Compound 36, 5-((3-(6-phenyl-5,6-dihydrocyclopenta[c]pyrazol-2 (4H)-yl)phenyl)ethynyl)pyrimidin-2-amine] | 3.62 | ≤ 100 nM |
| Nc1ccc(C#Cc2cncc(-n3cc4c(n3)C(c3ccccc3)CC4)c2)cn1 (stereo not drawn) [Compound 16, 5-((5-(6-phenyl-5,6-dihydrocyclopenta[c]pyrazol-2 (4H)-yl)pyridin-3-yl)ethynyl)pyridine-2-amine] | 2.24 | ≤ 100 nM |
| Cn1c(-n2cc3c(n2)C(c2ccccc2)CC3)cc(C#Cc2cnc(N)nc2)cc1=O (stereo not drawn) [Compound 4, 4-((2-aminopyrimidin-5-yl)ethynyl)-1-methyl-6-(6-phenyl-5,6-dihydrocyclopenta[c]pyrazol-2 (4H)-yl)pyridine-2 (1H)-one] | 1.44 | ≤ 100 nM |
| C(#Cc1cnc2cccnn12)c1cccc(-n2cc3c(n2)C(c2ccccc2)CC3)n1 (stereo not drawn) [Compound 1, 3-((6-(6-phenyl-5,6-dihydrocyclopenta[c]pyrazol-2 (4H)-yl)pyridin-2-yl)ethynyl)imidazo[1,2-b]pyridazine] | 0.735 | ≤ 100 nM |
| Cc1ncc(C#Cc2cccc(-n3cc4c(n3)C(c3ccccc3)CC4)c2)n1C (stereo not drawn) [Compound 24, 2-(3-((1,2-dimethyl-iH-imidazole-5-yl)ethynyl)phenyl)-6-phenyl-2,4,5,6-tetrahydrocyclopenta[c]pyrazole] | 1.33 | ≤ 100 nM |
| Nc1ncc(C#Cc2ccnc(-n3cc4c(n3)C(c3ccccc3)CC4)c2)cn1 (stereo not drawn) [Compound 28] | 1.91 | ≤ 100 nM |
| Cn1c(-n2nc3c(n2)C(c2cccnc2)CC3)cc(C#Cc2cnc(N)nc2)cc1=O (stereo not drawn) [Compound 62] | 0.388 | ≤ 100 nM |
| Cn1c(-n2nc3c(n2)C(C2CCCCC2)CC3)cc(C#Cc2cnc(N)nc2)cc1=O (stereo not drawn) [Compound 65, 4-((2-aminopyrimidin-5-yl)ethynyl)-6-(4-cyclohexyl-5,6-dihydrocyclopenta[d][1,2,3]triazol-2 (4H)-yl)-1-methylpyridin-2 (1H)-one] | 1.12 | ≤ 100 nM |
| C(#Cc1cnc2cccnn12)c1cncc(-n2cc3c(n2)C(c2ccccc2)CC3)c1 (stereo not drawn) [Compound 6, 3-((5-(6-phenyl-5,6-dihydrocyclopenta[c]pyrazol-2 (4H)-yl)pyridin-3-yl)ethynyl)imidazo[1,2-b]pyridazine] | 1.24 | ≤ 100 nM |
| Nc1ncc(C#CC2CCC(n3cc4c(n3)C(c3ccccc3)CC4)C2)cn1 (stereo not drawn) [Compound 3, 5-((3-(6-phenyl-5,6-dihydrocyclopenta[c]pyrazol-2 (4H)-yl)cyclopentyl)ethynyl)pyrimidin-2-amine] | 3.96 | ≤ 100 nM |
| C(#Cc1cccc(-n2cc3c(n2)C(c2ccccc2)CC3)c1)c1cccnc1 (stereo not drawn) [Compound 32, 6-phenyl-2-(3-(pyridin-3-ethynyl)phenyl)-2,4,5,6-tetrahydrocyclopenta[c]pyrazole] | 1.27 | ≤ 100 nM |
| Cn1cc(C#Cc2cnc(N)nc2)cc(-n2cc3c(n2)C(c2ccccc2)CC3)c1=O (stereo not drawn) [Compound 44] | 3.25 | ≤ 100 nM |

The next lines start with results.

| Kp at 1 h [1] | Structure (SMILES) | EC50 [2] |
| --- | --- | --- |
| 2.61 | Nc1ncc(C#Cc2cncc(-n3nc4c(n3)[C@H](c3ccccc3)CC4)c2)cn1 [Compound 55, (S)-5-((5-(4-phenyl-5,6-dihydrocyclopenta[d][1,2,3]triazol-2 (4H)-yl)pyridin-3-yl)ethynyl)pyrimidin-2-amine] | ≤ 100 nM |
| 2.28 | Nc1ncc(C#Cc2cncc(-n3cc4c(n3)C(c3cccc(F)c3)CC4)c2)cn1 (stereo not drawn) [Compound 45] | ≤ 100 nM |
| 1.1 | Nc1ncc(C#Cc2cncc(-n3nc4n(c3=O)CCC4c3ccccc3)c2)cn1 (stereo not drawn) [Compound 52, 2-(5-((2-aminopyrimidin-5-yl)ethynyl)pyridin-3-yl)-7-phenyl-2,5,6,7-tetrahydro-3H-pyrrolo[2,1-c][1,2,4]triazole-3-one] | ≤ 100 nM |
| 2.92 | Nc1ncc(C#Cc2cncc(-n3cc4c(n3)[C@H](c3ccccc3)CC4)c2)cn1 [Compound 14] | ≤ 100 nM |
| 1.61 | Cc1c2c(nn1-c1cncc(C#Cc3cnc(N)nc3)c1)C(c1ccccc1)CC2 (stereo not drawn) [Compound 40] | ≤ 100 nM |
| 2.07 | Nc1ncc(C#Cc2cncc(-n3nc4c(c3Cl)CCC4c3ccccc3)c2)cn1 (stereo not drawn) [Compound 39] | ≤ 100 nM |
| 1.34 | NC(=O)c1ncc(C#Cc2cncc(-n3cc4c(n3)C(c3ccccc3)CC4)c2)cn1 (stereo not drawn) [Compound 10, 5-((5-(6-phenyl-5,6-dihydrocyclopenta[c]pyrazol-2 (4H)-yl)pyridin-3-yl)ethynyl)pyrimidine-2-carboxamide] | > 1000 nM |
| 1.2 | Nc1ncc(C#Cc2cncc(-n3nc4c(n3)[C@@H](c3ccccc3)CC4)c2)cn1 [Compound 56, (R)-5-((5-(4-phenyl-5,6-dihydrocyclopenta[d][1,2,3]triazol-2 (4H)-yl)pyridin-3-yl)ethynyl)pyrimidin-2-amine] | > 1000 nM |
| 2.46 | Nc1ncc(C#Cc2cncc(-n3cc4c(n3)C(c3ccccc3)OC4)c2)cn1 (stereo not drawn) [Compound 51, 5-(5-(6-phenyl-4H-furo[3,4-c]pyrazol-2 (6H)-yl)pyridin-3-ethynyl)pyrimidin-2-amine] | ≤ 100 nM |

Source: patent US20240391900A1, “RIP1 KINASE INHIBITOR AND USE THEREOF” (SIRONAX (BEIJING) CO., LTD., priority 2021, published 2024)
